Measured values taken from publication PMC9953885 (Biosensors, 2023).
Where a name gives a salt, the structure may show the parent alone.

Target: T1, human pancreatic lipase (hPL) (Homo sapiens, UniProt P16233)
T1 construct: gene PNLIP
T1 sequence (P16233 17-465): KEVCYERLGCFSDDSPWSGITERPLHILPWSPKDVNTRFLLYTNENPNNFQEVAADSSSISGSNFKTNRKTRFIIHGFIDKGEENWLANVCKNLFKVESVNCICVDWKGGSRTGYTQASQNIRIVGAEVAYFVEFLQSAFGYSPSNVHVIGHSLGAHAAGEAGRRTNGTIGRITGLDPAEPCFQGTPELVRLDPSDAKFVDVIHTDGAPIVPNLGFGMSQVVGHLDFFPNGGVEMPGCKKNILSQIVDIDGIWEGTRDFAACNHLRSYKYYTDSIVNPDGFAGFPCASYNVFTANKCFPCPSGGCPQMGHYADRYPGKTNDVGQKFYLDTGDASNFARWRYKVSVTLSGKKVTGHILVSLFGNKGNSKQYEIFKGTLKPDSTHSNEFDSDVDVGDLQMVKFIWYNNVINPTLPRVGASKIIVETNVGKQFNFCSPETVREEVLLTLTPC
Conditions: 10 µM; inhibitor
Protocol: First, we evaluated the inhibitory effect of 94 natural products derived from herbs and 94 drugs on hPL. In our high-throughput screening system, 1 ug/mL hPL was used, and the final concentration of the 94 natural products derived from herbs and 94 drugs used was 10 μM. Other conditions were the same as in the selectivity experiments. […] RLE was incubated with hPL and various enzymes, such as hCES1A, hCES2A, CA, AchE, BchE, 5-HKE, lysozyme, trypsin, thrombin, α-CT, FAP, PREP, pepsin, α-amylase, plasmin, notum and hSA, in a 100 µL incubation mixture consisting of Tris-HCl (pH = 7.4, 25 mM), NaCl (150 mM), CaCl2 (1 mM) and porcine bile salt (0.1 mg/mL) at a concentration of 1.5 µg/mL. The reaction was initiated by adding RLE to the preincubated enzyme mixture at 37 °C, and metabolite formation was determined by measuring the fluorescence intensity of resorufin at 590 nm. In addition, several amino acids (IIe, His, Trp, Val, Leu, Tyr, Ala, Thr, Pro, Asp, Lys, Met, Cys, Ser, Phe, Gly, Glu and Gln), ions (Ni^2+, Ca^2+, Na^+, K^+, Cu^2+, Zn^2+, Mg^2+, NH4^+, Cu^+, Fe^2+ and CN^-) and GSH were measured. The concentration of these interfering factors was 5 μM. […] In this case, a visual high-throughput assay was established to screen hPL inhibitors, using RLE as a fluorogenic substrate in a 96-well microplate.

NCCc1ccc(O)c(O)c1 [3-Hydroxytyramine hydrochloride]
% of control remaining: 86.11%

CCCCC1OC(=O)C2=C1CCC=C2 (centres unmarked) [3-N-butyl-4,5-dihydrophthalide]
% of control remaining: 75.65%

CC(C)CCC[C@@H](C)[C@H]1CC[C@H]2[C@@H]3CCC4=CC(=O)CC[C@]4(C)[C@H]3CC[C@]12C [4-Cholesten-3-one]
% of control remaining: 77.59%

COc1ccc(-c2coc3cc(O)cc(O)c3c2=O)cc1 [5,7-Dihydrox-4'-methoxyisoflavone]
% of control remaining: 100.90%

COc1c2occc2cc2ccc(=O)oc12 [8-Methoxypsoralen]
% of control remaining: 90.65%

C=CC(=O)Nc1cc(Nc2nccc(-c3cn(C)c4ccccc34)n2)c(OC)cc1N(C)CCN(C)C [AZD-9291]
% of control remaining: 92.69%

C=C1C(=O)O[C@@H]2C[C@@]3(C)CCC[C@H](C)C3=C[C@H]12 [Alantolactone]
% of control remaining: 61.11%

COc1cc(O)cc2c1C(=O)C[C@@H](c1ccccc1)O2 [Alpinetin]
% of control remaining: 107.78%

Cc1nnc2n1-c1ccc(Cl)cc1C(c1ccccc1)=NC2 [Alprazolam]
% of control remaining: 68.13%

NCC[C@H](O)C(=O)N[C@@H]1C[C@H](N)[C@@H](O[C@H]2O[C@H](CN)[C@@H](O)[C@H](O)[C@H]2O)[C@H](O)[C@H]1O[C@H]1O[C@H](CO)[C@@H](O)[C@H](N)[C@H]1O [Amikacin]
% of control remaining: 73.77%

N=C(N)NC(=O)c1nc(Cl)c(N)nc1N [Amiloride hydrochloride]
% of control remaining: 109.84%

CCOC(=O)C1=C(COCCN)NC(C)=C(C(=O)OC)C1c1ccccc1Cl (centres unmarked) [Amlodipine]
% of control remaining: 85.85%

C=C1CC[C@@H]2[C@](C)(CO)[C@H](O)CC[C@@]2(C)[C@@H]1C/C=C1/C(=O)OC[C@H]1O [Andrographolide]
% of control remaining: 70.38%

O=c1cc(-c2ccc(O)cc2)oc2cc(O)cc(O)c12 [Apigenin]
% of control remaining: 102.46%

O=c1c(O[C@@H]2O[C@H](CO)[C@@H](O)[C@H](O)[C@H]2O)c(-c2ccc(O)cc2)oc2cc(O)cc(O)c12 [Astragalin]
% of control remaining: 107.88%

COC(=O)N[C@H](C(=O)N[C@@H](Cc1ccccc1)[C@@H](O)CN(Cc1ccc(-c2ccccn2)cc1)NC(=O)[C@@H](NC(=O)OC)C(C)(C)C)C(C)(C)C [Atazanavir]
% of control remaining: 79.92%

O=c1cc(-c2ccccc2)oc2cc(O)c(O)c(O)c12 [Baicalein]
% of control remaining: 48.80%

CN(C)C(=O)Oc1cc(OC(=O)N(C)C)cc(C(O)CNC(C)(C)C)c1 (centres unmarked) [Bambuterol hydrochloride]
% of control remaining: 93.23%

CC(=O)Nc1ccc(OC(=O)c2ccccc2OC(C)=O)cc1 [Benorilate]
% of control remaining: 76.99%

O=C(/C=C/c1ccccc1)OCc1ccccc1 [Benzyl cinnamate]
% of control remaining: 74.62%

COc1cc2c3cc1Oc1c(OC)c(OC)cc4c1[C@@H](Cc1cccc(c1)Oc1ccc(c(O)c1)C[C@@H]3N(C)CC2)N(C)CC4 [Berbamine Hydrochloride]
% of control remaining: 69.86%

COc1ccc2cc3[n+](cc2c1O)CCc1cc2c(cc1-3)OCO2 [Berberrubine]
% of control remaining: 86.09%

COc1c2ccoc2cc2oc(=O)ccc12 [Bergapten]
% of control remaining: 54.11%

O=C(O)/C=C/c1ccc(O)c(O)c1 [Caffeic acid]
% of control remaining: 71.45%

COc1ccc(-c2coc3cc(O[C@@H]4O[C@H](CO)[C@@H](O)[C@H](O)[C@H]4O)ccc3c2=O)cc1O [Calycosin 7-O-glucoside]
% of control remaining: 84.02%

NC(=O)N1c2ccccc2C=Cc2ccccc21 [Carbamazepine]
% of control remaining: 104.15%

Cc1cc(=O)c2c(O)c3c(O[C@@H]4O[C@H](CO)[C@@H](O)[C@H](O)[C@H]4O)cccc3cc2o1 [Cassiaside]
% of control remaining: 81.67%

CCC1=C[C@@H]2CN3CCc4c([nH]c5ccccc45)[C@@](C(=O)OC)(C2)[C@@H]13 [Catharanthine]
% of control remaining: 81.11%

CC(C)(O/N=C(\C(=O)N[C@@H]1C(=O)N2C(C(=O)[O-])=C(C[n+]3ccccc3)CS[C@H]12)c1csc(N)n1)C(=O)O [CeftazidiMe]
% of control remaining: 118.41%

CC1=C(O)C(=O)C=C2C1=CC=C1[C@@]2(C)CC[C@@]2(C)[C@@H]3C[C@](C)(C(=O)O)CC[C@]3(C)CC[C@]12C [Celastrol]
% of control remaining: 84.16%

Cc1ccc(-c2cc(C(F)(F)F)nn2-c2ccc(S(N)(=O)=O)cc2)cc1 [Celecoxib]
% of control remaining: 90.67%

CC1=C(C(=O)O)N2C(=O)[C@@H](NC(=O)[C@H](N)c3ccccc3)[C@H]2SC1 [Cephalexin]
% of control remaining: 109.58%

CN/C(=N\CCSCc1nc[nH]c1C)NC#N [Cimetidine]
% of control remaining: 111.11%

COC(=O)[C@H](c1ccccc1Cl)N1CCc2sccc2C1 [Clopidogrel sulfate]
% of control remaining: 90.49%

CN1CCN(C2=Nc3cc(Cl)ccc3Nc3ccccc32)CC1 [Clozapine]
% of control remaining: 97.86%

C[C@@H](Oc1cc(-c2cnn(C3CCNCC3)c2)cnc1N)c1c(Cl)ccc(F)c1Cl [Crizotinib]
% of control remaining: 85.14%

COc1cc(/C=C/C(=O)CC(=O)/C=C/c2ccc(O)c(OC)c2)ccc1O [Curcumin]
% of control remaining: 75.83%

O=P1(N(CCCl)CCCl)NCCCO1 (centres unmarked) [Cyclophosphamide]
% of control remaining: 91.59%

O=C(Cc1ccccc1F)C1CC1 [Cyclopropyl 2-fluorobenzyl ketone]
% of control remaining: 117.10%

Cc1nc(Nc2ncc(C(=O)Nc3c(C)cccc3Cl)s2)cc(N2CCN(CCO)CC2)n1 [Dasatinib]
% of control remaining: 91.97%

C=C1CC[C@@H]2[C@](C)(CO)[C@H](O)CC[C@@]2(C)[C@H]1C/C=C1\C=COC1=O [Dehydroandrographolide]
% of control remaining: 89.55%

COc1cc2c(cc1OC)-c1c(C)c3ccc(OC)c(OC)c3c[n+]1CC2 [Dehydrocorydaline]
% of control remaining: 123.69%

COc1ccc2c(c1)[C@]13CCCC[C@@H]1[C@H](C2)N(C)CC3 [Dextromethorphan]
% of control remaining: 89.61%

O=C(O)c1cc(-c2ccc(F)cc2F)ccc1O [Diflunisal]
% of control remaining: 118.03%

C[C@H]1O[C@@H](O[C@H]2[C@@H](O)C[C@H](O[C@H]3[C@@H](O)C[C@H](O[C@H]4CC[C@@]5(C)[C@H](CC[C@@H]6[C@@H]5C[C@@H](O)[C@]5(C)[C@@H](C7=CC(=O)OC7)CC[C@]65O)C4)O[C@@H]3C)O[C@@H]2C)C[C@H](O)[C@@H]1O [Digoxin]
% of control remaining: 99.51%

O=C1c2c(O)cc(O)cc2O[C@H](c2ccc(O)cc2)[C@H]1O [Dihydrokaempferol]
% of control remaining: 109.31%

O=C1c2c(O)cc(O)cc2O[C@H](c2cc(O)c(O)c(O)c2)[C@H]1O [Dihydromyricetin]
% of control remaining: 95.62%

CN(C)CCOC(c1ccccc1)c1ccccc1 [Diphenhydramine Hydrochloride]
% of control remaining: 88.58%

Nc1ccccc1NC(=O)c1ccc(CNC(=O)OCc2cccnc2)cc1 [Entinostat]
% of control remaining: 102.02%

COc1ccc(-c2oc3c(CC=C(C)C)c(O[C@@H]4O[C@H](CO)[C@@H](O)[C@H](O)[C@H]4O)cc(O)c3c(=O)c2O[C@@H]2O[C@@H](C)[C@H](O)[C@@H](O)[C@H]2O[C@@H]2O[C@@H](C)[C@H](O)[C@@H](O)[C@H]2O)cc1 [Epmedin C]
% of control remaining: 81.94%

O=c1ccc2cc(O)c(O)cc2o1 [Esculetin]
% of control remaining: 86.12%

NC(=O)N1c2ccccc2C[C@H](O)c2ccccc21 [Eslicarbazepine]
% of control remaining: 103.44%

CCc1cc(C(N)=S)ccn1 [Ethionamide]
% of control remaining: 91.71%

C#C[C@]1(O)CC[C@H]2[C@@H]3CCC4=CC(=O)CC[C@@H]4[C@H]3C(=C)C[C@@]21CC [Etonogestrel]
% of control remaining: 62.97%

COc1cc([C@@H]2c3cc4c(cc3[C@@H](O[C@@H]3O[C@@H]5CO[C@@H](C)O[C@H]5[C@H](O)[C@H]3O)[C@H]3COC(=O)[C@H]23)OCO4)cc(OC)c1O [Etoposide]
% of control remaining: 65.05%

O=C1[C@H](CC[C@H](O)c2ccc(F)cc2)[C@@H](c2ccc(O)cc2)N1c1ccc(F)cc1 [Ezetimibe]
% of control remaining: 119.27%

CCOC(=O)C1=C(C)NC(C)=C(C(=O)OC)C1c1cccc(Cl)c1Cl (centres unmarked) [Felodipine]
% of control remaining: 93.02%

CC(C)OC(=O)C(C)(C)Oc1ccc(C(=O)c2ccc(Cl)cc2)cc1 [Fenofibrate]
% of control remaining: 94.68%

CC(C(=O)O)c1cccc(Oc2ccccc2)c1 (centres unmarked) [Fenoprofen]
% of control remaining: 91.13%
